Results reported in patent US9963445B2, “Chemical compounds” (SYNGENTA PARTICIPATIONS AG, priority 2013, dated 2018).

Legend:
Type in all cases: in vivo
Amaranthus retroflexus [1] = assay: Post-emergence herbicidal activity, glasshouse pot test; design: key: 0 = no damage to plant, 5 = total damage to plant; settings: Application post-emergence, rate 1000 g/ha, evaluated after 13 days
Summary of the method: (§1)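 Damage rated 0 (none) to 5 (total) 13 days after spraying. Plants were treated post-emergence at 8 days after sowing, using an acetone/water (50:50) formulation with 0.5% Tween 20 diluted to an aqueous spray.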

Abutilon theophrasti [2] = assay: as above; design: key: 0 = no damage to plant, 5 = total damage to plant; settings: Application post-emergence, rate 1000 g/ha, evaluated after 13 days
Summary of the method: as §1

Echinochloa crus-galli [3] = assay: as above; design: key: 0 = no damage to plant, 5 = total damage to plant; settings: Application post-emergence, rate 1000 g/ha, evaluated after 13 days
Summary of the method: as §1

zea mays [4] = assay: as above; design: key: 0 = no damage to plant, 5 = total damage to plant; settings: Application post-emergence, rate 1000 g/ha, evaluated after 13 days
Summary of the method: as §1

Setaria faberi [5] = assay: as above; design: key: 0 = no damage to plant, 5 = total damage to plant; settings: Application post-emergence, rate 1000 g/ha, evaluated after 13 days
Summary of the method: as §1

Alopecurus myosuroides [6] = assay: as above; design: key: 0 = no damage to plant, 5 = total damage to plant; settings: Application post-emergence, rate 1000 g/ha, evaluated after 13 days
Summary of the method: as §1

Amaranthus retroflexus [7] = assay: Pre-emergence herbicidal activity, glasshouse pot test; settings: pre-emergence spray, rate 1000 g/ha, evaluated after 13 days, scale 0-5
Summary of the method: (§2)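 Glasshouse conditions were 24/16 °C day/night with 14 h light and 65% humidity throughout. Soil was sprayed before emergence, one day after sowing, using an acetone/water (50:50) formulation with 0.5% Tween 20; injury was scored 0–5 after 13 days.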

Abutilon theophrasti [8] = assay: as above; settings: pre-emergence spray, rate 1000 g/ha, evaluated after 13 days, scale 0-5
Summary of the method: as §2

Echinochloa crus-galli [9] = assay: as above; settings: pre-emergence spray, rate 1000 g/ha, evaluated after 13 days, scale 0-5
Summary of the method: as §2

zea mays [10] = assay: as above; settings: pre-emergence spray, rate 1000 g/ha, evaluated after 13 days, scale 0-5
Summary of the method: as §2

Setaria faberi [11] = assay: as above; settings: pre-emergence spray, rate 1000 g/ha, evaluated after 13 days, scale 0-5
Summary of the method: as §2

Alopecurus myosuroides [12] = assay: as above; settings: pre-emergence spray, rate 1000 g/ha, evaluated after 13 days, scale 0-5
Summary of the method: as §2

Row | Compound | AMARE herbicidal damage score (Amaranthus retroflexus [1]) | ABUTH herbicidal damage score (Abutilon theophrasti [2]) | ECHCG herbicidal damage score (Echinochloa crus-galli [3]) | ZEAMX herbicidal damage score (zea mays [4]) | SETFA herbicidal damage score (Setaria faberi [5]) | ALOMY herbicidal damage score (Alopecurus myosuroides [6]) | AMARE damage score, application pre-emergence (Amaranthus retroflexus [7]) | ABUTH damage score, application pre-emergence (Abutilon theophrasti [8]) | ECHCG damage score, application pre-emergence (Echinochloa crus-galli [9]) | ZEAMX damage score, application pre-emergence (zea mays [10]) | SETFA damage score, application pre-emergence (Setaria faberi [11]) | ALOMY damage score, application pre-emergence (Alopecurus myosuroides [12])
1 | CC1=C(Br)C(=O)N(c2cc(C(F)(F)F)ccn2)C1O (stereo not drawn) [AG1] | 5 | 5 | 5 | 2 | 5 | 4 | 5 | 5 | 2 | 0 | 3 | 2
2 | COC1=C(C)C(O)N(c2cc(C(F)(F)F)ccn2)C1=O (stereo not drawn) [AI1, 2-hydroxy-4-methoxy-3-methyl-1-[4-(trifluoromethyl)-2-pyridyl]-2H-pyrrol-5-one] | 5 | 5 | 5 | 4 | 5 | 4 | 5 | 5 | 4 | 3 | 5 | 4
3 | COC1=C(C)C(O)N(c2cc(C(F)(F)F)c(Br)cn2)C1=O (stereo not drawn) [AI2] | 5 | 5 | 5 | 4 | 5 | 5 | 5 | 3 | 4 | 2 | 1 | 4
4 | COC1=C(C)C(O)N(c2cc(OC(F)(F)F)ccn2)C1=O (stereo not drawn) [AI3] | 4 | 4 | 5 | 1 | 5 | 5 | 5 | 4 | 4 | 2 | 4 | 3
5 | COC1=C(C)C(O)N(c2cc(C(C)(C)C)ccn2)C1=O (stereo not drawn) [AI4] | 5 | 5 | 5 | 3 | 5 | 5 | 5 | 4 | 4 | 1 | 5 | 3
6 | CCOC1=C(C)C(O)N(c2cc(C(F)(F)F)ccn2)C1=O (stereo not drawn) [AI5, 4-ethoxy-2-hydroxy-3-methyl-1-[4-(trifluoromethyl)-2-pyridyl]-2H-pyrrol-5-one] | 5 | 5 | 5 | 3 | 4 | 4 | 5 | 4 | 4 | 3 | 5 | 4
7 | COC1=C(C)C(O)N(c2cc(C(F)(F)F)c(C(=O)NC(C)(C)C)cn2)C1=O (stereo not drawn) [AI6] | 5 | 5 | 5 | 5 | 5 | 5 | 5 | 5 | 5 | 4 | 5 | 4
8 | COC1=C(C)C(O)N(c2cc3c(cn2)CCCC3)C1=O (stereo not drawn) [AI7] | 3 | 4 | 5 | 1 | 5 | 3 | 3 | 1 | 5 | 0 | 5 | 2
9 | CCN(CC)C(=O)c1cnc(N2C(=O)C(OC)=C(C)C2O)cc1C(F)(F)F (stereo not drawn) [AI9] | 5 | 5 | 5 | 4 | 5 | 5 | 5 | 5 | 5 | 3 | 4 | 4
10 | C#CCNC(=O)c1cnc(N2C(=O)C(OC)=C(C)C2O)cc1C(F)(F)F (stereo not drawn) [AI10] | 5 | 4 | 5 | 5 | 5 | 5 | 5 | 5 | 5 | 4 | 5 | 4
11 | COC1=C(C)C(O)N(c2cc(C(F)(F)F)c(C(=O)N(C)C)cn2)C1=O (stereo not drawn) [AI11] | 5 | 5 | 5 | 4 | 5 | 5 | 5 | 5 | 4 | 4 | 4 | 4
12 | COC1=C(C)C(O)N(c2cc(C(F)(F)F)c(C(=O)N(C)OC)cn2)C1=O (stereo not drawn) [AI12] | 5 | 5 | 5 | 5 | 5 | 5 | 5 | 5 | 4 | 4 | 4 | 4
13 | COC1=C(C)C(O)N(c2cc(C(F)(F)F)c(-c3cncnc3)cn2)C1=O (stereo not drawn) [AI13] | 5 | 5 | 5 | 4 | 5 | 5 | 4 | 2 | 3 | 3 | 2 | 3
